The record followed here is patent US9745297B2, “Compounds as modulators of RORC” (Boehringer Ingelheim International GmbH, priority 2013, dated 2017).

In general, IC50 refers to the point on the concentration scale where inhibition reaches its midpoint. Low values mean higher potency, high ones lower potency.

Each structure is given as a SMILES string.

In this experiment the target is T1, RORγt (Homo sapiens, UniProt P51449).
T1 construct: expressed in transfected cells
T1 sequence (P51449 269-508 limits assumed): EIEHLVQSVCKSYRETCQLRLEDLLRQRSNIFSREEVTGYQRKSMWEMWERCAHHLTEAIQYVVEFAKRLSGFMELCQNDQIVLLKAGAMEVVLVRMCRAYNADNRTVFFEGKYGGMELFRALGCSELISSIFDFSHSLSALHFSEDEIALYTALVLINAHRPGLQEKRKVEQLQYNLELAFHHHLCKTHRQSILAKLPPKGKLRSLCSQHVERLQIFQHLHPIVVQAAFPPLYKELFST
Description: RGA Assay: nuclear receptor transactivation assay, RORγt transactivation of a luciferase reporter. It is filed as cell-based. Particulars: transiently transfected HEK 293 cells (pGL4.3 luc2P/GAL4UAS, pBIND Gal4DBD hRORC LBD), 20-24 hours incubation, luciferase readout. The method, then: A nuclear receptor transactivation assay was performed to quantitate the ability of test compounds to inhibit RORγt transactivation of a luciferase reporter. A similar assay is described in: Khan et al., Bioorganic & Medicinal Chemistry Letters 23 (2013), 532-536. The system uses transiently transfected HEK 293 cells cotransfected with two plasmids (pGL4.3, luc2P/GAL4UAS/Hygro, and pBIND, Ga14DBD hRORC LBD1-3). The positive control is co-transiently transfected with both plasmids, and the negative control contains the pGL4.3 promoter sequence. Assays were assembled in 384 well plates where transiently transfected cells and test compound at varying concentrations were incubated for 20-24 hours. The next day, assays plates are taken out and equillibrated at RT for 20-30 minutes. Bright-Glo™ Luciferase Assay System is used to detect Luciferase production. After addition of Bright GLO detection reagent, the plates were incubated at RT for 20 minutes. The plates were read on an Envision plate reader to measure luminescence signal. The RLU signal is converted to POC relative to control and blank wells.
Compound Dilution Buffer:
Bright Glo Luciferase Assay System: Promega #E2620
Thaw lysis buffer provided in kit, add 100 mL lysis buffer to substrate powder.
Background: In a reporter assay the amount or activity of a reporter protein is the signal.
`Cc1cc(C)c(Oc2ccc3c(n2)C2(CCCC2)CN3C(=O)NCc2ccc(S(C)(=O)=O)cc2)cn1` [Example 60] showed an IC50 of 8500 nM.

Take `CNS(=O)(=O)c1ccc(CNC(=O)N2CC3(CCCC3)c3nc(Oc4cnc(C)cc4C)ccc32)cc1` [Example 61]: the IC50 was 7600 nM.

`CS(=O)(=O)c1ccc(CNC(=O)N2CC3(CCCC3)c3nc(Cl)ccc32)cc1` [Example 62]: the IC50 is greater than 30000 nM.

As for `CCS(=O)(=O)c1ccc(CNC(=O)N2CC3(CCCC3)c3nc(-c4cn5ccnc5cc4C)ccc32)cc1` [Example 63], the IC50 is greater than 30000 nM.

`CCS(=O)(=O)c1ccc(CNC(=O)N2CC3(CCCC3)c3nc(-c4cnc(C#N)nc4C4CC4)ccc32)cc1` [Example 64] gave an IC50 of 16000 nM.

In turn, `CS(=O)(=O)c1ccc(CNC(=O)N2CC3(CCCC3)c3nc(-c4cnc(C#N)nc4C4CC4)ccc32)cc1` [Example 65] gave an IC50 of 18000 nM. This IC50 and that of the molecule before are within 1.5-fold of each other.

Molecule `COc1ncnc(C2CC2)c1-c1ccc2c(n1)C1(CCCC1)CN2C(=O)NCc1ccc(S(C)(=O)=O)cc1` [Example 66] displayed an IC50 of 650 nM.

`CCS(=O)(=O)c1ccc(CNC(=O)N2CC3(CCCC3)c3nc(-c4c(OC(C)C)ncnc4C4CC4)ccc32)cc1` [Example 67]: the midpoint of inhibition, the IC50, lay at 830 nM.

For the molecule `CC(C)Oc1ncnc(C2CC2)c1-c1ccc2c(n1)C1(CCCC1)CN2C(=O)NCc1ccc(S(C)(=O)=O)cc1` [Example 68], the half-maximal inhibitory concentration (IC50) was found to be 2500 nM.

As for `CCOc1ncnc(C2CC2)c1-c1ccc2c(n1)C1(CCCC1)CN2C(=O)NCc1ccc(S(C)(=O)=O)cc1` [Example 69], the IC50 worked out at 1100 nM.

Turning to `CCOc1ncnc(C2CC2)c1-c1ccc2c(n1)C1(CCCC1)CN2C(=O)NCc1ccc(S(=O)(=O)CC)cc1` [Example 70], the IC50 was determined as 760 nM.

For the molecule `CCC1(C)CN(C(=O)NCc2ccc(S(=O)(=O)CC)cc2)c2ccc(-c3cncnc3C(C)C)nc21` (stereo not drawn) [Example 72], the IC50 amounted to 2800 nM. Against the preceding molecule, the IC50 is about 3.7-fold higher.

Consider `CCC1(C)CN(C(=O)NCc2ccc(S(=O)(=O)CC)cc2)c2ccc(-c3c(OC)ncnc3C3CC3)nc21` (stereo not drawn) [Example 73], for which half-maximal inhibition (IC50) was put at 1500 nM.

Molecule `CCS(=O)(=O)c1ccc(CNC(=O)N2CC3(CCCC3)c3nc(-c4c(OC)ncnc4C(F)(F)F)ccc32)cc1` [Example 74] returned a half-inhibitory concentration (IC50) of 310 nM.

In turn, `COc1ncnc(C(F)(F)F)c1-c1ccc2c(n1)C1(CCCC1)CN2C(=O)NCc1ccc(S(C)(=O)=O)cc1` [Example 75] registered an IC50 of 3700 nM.

`CCS(=O)(=O)N1CCC(CNC(=O)N2CC3(CCCC3)c3nc(-c4c(OC)ncnc4C4CC4)ccc32)CC1` [Example 76] came in with a half-inhibitory concentration (IC50) of 15000 nM.

On to `COc1ncnc(C2CC2)c1-c1ccc2c(n1)C(C)(C)CN2C(=O)NCc1ccc(S(C)(=O)=O)cc1` [Example 77], for which the midpoint of inhibition, the IC50, lay at 4000 nM.

Molecule `CNS(=O)(=O)c1ccc(CNC(=O)N2CC(C)(C)c3nc(-c4c(OC)ncnc4C4CC4)ccc32)cc1` [Example 78] had an IC50 of 2400 nM.

Molecule `CCS(=O)(=O)c1ccc(CNC(=O)N2CC3(CCCC3)c3nc(-c4c(C)ncnc4C4CC4)ccc32)cc1` [Example 79] had an IC50 of 380 nM.

On to `Cc1ncnc(C2CC2)c1-c1ccc2c(n1)C1(CCCC1)CN2C(=O)NCc1ccc(S(C)(=O)=O)cc1` [Example 80], for which the IC50 is 840 nM.

In the case of `CCS(=O)(=O)c1ccc(CNC(=O)N2CC(C)(C)c3nc(-c4c(OC)ncnc4C(F)(F)F)ccc32)cc1` [Example 81], the IC50 is 1500 nM.

Consider `CCS(=O)(=O)c1ccc(CNC(=O)N2CC3(CCCC3)c3nc(-c4cc(CN5CC[C@@H](O)C5)ccc4C4CC4)ccc32)cc1` [Example 82], for which the IC50 came out at 7000 nM.

For the molecule `CCS(=O)(=O)c1ccc(CNC(=O)N2CC3(CCCC3)c3nc(-c4cc(CN5CC[C@H](O)C5)ccc4C4CC4)ccc32)cc1` [Example 83], inhibition was half-maximal at 6900 nM (IC50).

For `CCS(=O)(=O)c1ccc(CNC(=O)N2CC3(CCCC3)c3nc(-c4cc(CN5CC[C@@H](O)C5)ccc4C)ccc32)cc1` [Example 84], the IC50 is greater than 30000 nM.

Molecule `CCS(=O)(=O)c1ccc(CNC(=O)N2CC3(CCCC3)c3nc(-c4cc(CN5CC[C@H](O)C5)ccc4C)ccc32)cc1` [Example 85] had an IC50 greater than 30000 nM.

`CNS(=O)(=O)c1ccc(CNC(=O)N2CC3(CCCC3)c3cc(-c4ccc(F)cc4C)ncc32)cc1` [Example 86] yielded a half-inhibitory concentration (IC50) of 2600 nM.

`COc1ccc(-c2cc3c(cn2)N(C(=O)NCc2ccc(S(C)(=O)=O)cc2)CC3(C)C)c(C(F)(F)F)c1` [Example 87] gave a concentration for half-maximal inhibition (IC50) of 3900 nM.

Regarding `CC(C)c1ncncc1-c1cc2c(cn1)N(C(=O)NCc1ccc(S(C)(=O)=O)cc1)CC2(C)C` [Example 88], the IC50 was greater than 30000 nM.

With `Cc1cc(F)ccc1-c1cc2c(cn1)N(C(=O)NCc1ccc(S(C)(=O)=O)cc1)CC2(C)C` [Example 89], the half-maximal inhibitory concentration (IC50) is greater than 30000 nM.

Molecule `COc1cc(C)c(-c2cc3c(cn2)N(C(=O)NCc2ccc(S(C)(=O)=O)cc2)CC3(C)C)cn1` [Example 90] showed an IC50 greater than 30000 nM.

`Cc1cc(O)ccc1-c1cc2c(cn1)N(C(=O)NCc1ccc(S(C)(=O)=O)cc1)CC2(C)C` [Example 91] showed an IC50 greater than 30000 nM.

In turn, `Cc1cc(C#N)ccc1-c1cc2c(cn1)N(C(=O)NCc1ccc(S(C)(=O)=O)cc1)CC2(C)C` [Example 92] yielded a half-maximal inhibitory concentration (IC50) greater than 30000 nM.

Consider `CCS(=O)(=O)c1ccc(CNC(=O)N2CC3(CCCC3)c3cc(-c4c(OC)ncnc4C4CC4)ncc32)cc1` [Example 93], for which the half-inhibitory concentration (IC50) worked out at 740 nM.

The molecule `CCS(=O)(=O)c1ccc(CNC(=O)N2CC(C)(C)c3cc(-c4c(OC)ncnc4C4CC4)ncc32)cc1` [Example 94] showed an IC50 of 3800 nM.

The molecule `CCS(=O)(=O)c1ccc(CNC(=O)N2CC3(CCCC3)c3cc(-c4cnc(OC)nc4C4CC4)ncc32)cc1` [Example 95] yielded an IC50 greater than 30000 nM.

`CCS(=O)(=O)c1ccc(CNC(=O)N2CC3(CCCC3)c3cc(Cl)ncc32)cc1` [Example 96] displayed a half-maximal inhibitory concentration (IC50) greater than 30000 nM.

`CCS(=O)(=O)c1ccc(CNC(=O)N2CC3(CCCC3)c3nc(-c4c(C5CC5)ncnc4C4CC4)ccc32)cc1` [Example 97]: the 50% inhibitory concentration (IC50) amounted to 200 nM.

In the case of `CCS(=O)(=O)c1ccc(CNC(=O)N2CC3(CCCC3)c3nc(-c4c(C5CC5)ncnc4C4CC4)ccc32)nc1` [Example 98], the midpoint of inhibition, the IC50, lay at 370 nM.

For `CCS(=O)(=O)c1ccc(CNC(=O)N2CC3(CCCC3)c3nc(-c4c(C)ncnc4C(F)(F)F)ccc32)cc1` [Example 99], the midpoint of inhibition, the IC50, lay at 360 nM.

In turn, `CCc1ncnc(C2CC2)c1-c1ccc2c(n1)C1(CCCC1)CN2C(=O)NCc1ccc(S(=O)(=O)CC)cc1` [Example 100] registered an IC50 of 220 nM.

As for `CCc1ncnc(C2CC2)c1-c1ccc2c(n1)C1(CCCC1)CN2C(=O)NCc1ccc(S(=O)(=O)CC)cn1` [Example 101], the IC50 stood at 420 nM.

`CCS(=O)(=O)c1cnc(CNC(=O)N2CC3(CCCC3)c3nc(-c4c(OC)ncnc4C4CC4)ccc32)nc1` [Example 102] registered a 50% inhibitory concentration (IC50) of 730 nM.
